Starred links: 1 amine or outer side, 2 acyl side, 3 side chain; linkers in the order of their positions; H or OH if unused. Positions of bridges follow the written chain, without caps; N, C: chain ends. Non-standard residues stand in square brackets, D forms with d. Chains are numbered I, II in the order given. No end group written: not given here. *: point of attachment. X1 = O=C(CCOCCOCCOCCN(CCOCCOCCOCCn1cc(CCC(=O)[*:2])nn1)CCOCCOCCOCCn1cc(CCC(=O)[*:3])nn1)[*:1]; X2 = O=C(CCSCCC(=O)[*:1])N1CN(C(=O)CC[*:2])CN(C(=O)CC[*:3])C1; TATA = O=C(CC[*:1])N1CN(C(=O)CC[*:2])CN(C(=O)CC[*:3])C1; Dip = N[C@H](C(=O)O)C(c1ccccc1)c1ccccc1; 1Nal = N[C@@H](Cc1cccc2ccccc12)C(=O)O; d1Nal = N[C@H](Cc1cccc2ccccc12)C(=O)O; Hyp = O=C(O)[C@@H]1C[C@@H](O)CN1; hArg = N=C(N)NCCCC[C@H](N)C(=O)O; tBuAla = CC(C)(C)C[C@H](N)C(=O)O; Cba = N[C@@H](CC1CCC1)C(=O)O; NMeA = CN[C@@H](C)C(=O)O; Nle = CCCC[C@H](N)C(=O)O; Pent4ynoyl = C#CCCC(=O)*; Mpa = O=C(O)CCS
Key:
[1] = target: CD137 (Homo sapiens, UniProt Q07011); assay: CD137 reporter assay (Promega, Jurkat cells) in co-culture with EphA2-expressing tumor cells (A549, PC3, HT29); assay type: cell-based; parameters: host or cells: Jurkat reporter cells; settings: for fold induction / Emax (fold induction over background): CD137 reporter coculture assay with PC3 tumor cells; for fold induction: read-out: Emax (fold induction over background); for EC50: EC50, CD137 reporter coculture assay with PC3 tumor cells
Description: Culture medium, referred to as R1 media, is prepared by adding 1% FBS to RPMI-1640 (component of Promega kit CS196005). Serial dilutions of test articles in R1 are prepared in a sterile 96 well-plate. Add 25 μL per well of test articles or R1 (as a background control) to designated wells in a white cell culture plate. Tumor cells* are harvested and resuspended at a concentration of 400,000 cells/mL in R1 media. Twenty five (25) μL/well of tumor cells are added to the white cell culture plate. Jurkat cells (Promega kit CS196005, 0.5 mL) are thawed in the water bath and then added to 5 ml pre-warmed R1 media. Twenty five (25) μL/well of Jurkat cells are then added to the white cell culture plate. Incubate the cells and test articles for 6 h at 37° C., 5% CO2. At the end of 6 h, add 75 μL/well Bio-Glo™ reagent (Promega) and incubate for 10 min before reading luminescence in a plate reader (Clariostar, BMG). The fold change relative to cells alone (Jurkat cells+Cell line used in co-culture) is calculated and plotted in GraphPad Prism as log(agonist) vs response to determine EC50 (nM) and Fold Induction over background (Max).
The tumor cell types used in co-culture for EphA2 are A549, PC3 and HT29. The tumor cell type used in co-culture for PD-L1 is RKO.

[2] = Pharmacokinetics in SD rats; assay type: in vivo; settings: rat, in vivo, IV Inf (15 minutes)
Description: Male SD Rats were dosed with each heterotandem Bicycle peptide complex formulated in 25 mM Histidine HCl, 10% sucrose pH 7 by IV bolus or IV infusion (15 minutes). Serial bleeding (about 80 μL blood/time point) was performed via submandibular or saphenous vein at each time point. All blood samples were immediately transferred into prechilled microcentrifuge tubes containing 2 μL K2-EDTA (0.5M) as anti-coagulant and placed on wet ice. Blood samples were immediately processed for plasma by centrifugation at approximately 4° C., 3000 g. The precipitant including internal standard was immediately added into the plasma, mixed well and centrifuged at 12,000 rpm, 4° C. for 10 minutes. The supernatant was transferred into pre-labeled polypropylene microcentrifuge tubes, and then quick-frozen over dry ice. The samples were stored at […] or below as needed until analysis. 7.5 μL of the supernatant samples were directly injected for LC-MS/MS analysis using an Orbitrap Q Exactive in positive ion mode to determine the concentrations of analyte. Plasma concentration versus time data were analyzed by non-compartmental approaches using the Phoenix WinNonlin 6.3 software program. C0, CI, Vdss, T½, AUC(0-last), AUC(0-inf), MRT(0-last), MRT(0-inf) and graphs of plasma concentration versus time profile were reported.

CD137, sequence (Q07011 24-255): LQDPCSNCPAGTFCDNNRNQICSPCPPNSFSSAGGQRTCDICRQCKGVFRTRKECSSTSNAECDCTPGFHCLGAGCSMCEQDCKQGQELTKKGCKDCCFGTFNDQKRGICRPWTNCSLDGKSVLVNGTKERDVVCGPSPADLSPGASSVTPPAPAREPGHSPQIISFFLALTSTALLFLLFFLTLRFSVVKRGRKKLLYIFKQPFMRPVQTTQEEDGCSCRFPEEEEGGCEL

Substance | fold induction [1] | EC50 [1] [nM] | Emax (fold induction over background) [1] | also measured
I: [NMeA][hArg]DC[Hyp]LVNPLCLEP[dD]WTC-NH2 / II: Ac-C[tBuAla]PE[dK]PYCFADPY[Nle]CA-NH2 / III: Ac-C[tBuAla]PE[dK]PYCFADPY[Nle]CA-NH2 (linker I:4-I:11-I:18, II:1-II:8-II:15, III:1-III:8-III:15 via TATA; linker I:N-II:5-III:5 via X1) [BCY13276] | 50.5 | 0.1 | – | –
I: [d1Nal][hArg]DC[Hyp][Cba]VNPLCLEP[dA]WTC[dA]-NH2 / II: Ac-C[tBuAla]PE[dK]PYCFADPY[Nle]CA-NH2 / III: Ac-C[tBuAla]PE[dK]PYCFADPY[Nle]CA-NH2 (linker I:4-I:11-I:18, II:1-II:8-II:15, III:1-III:8-III:15 via TATA; linker I:N-II:5-III:5 via X1) [BCY13278] | 37.9 | 0.14 | – | –
I: A[hArg]DC[Hyp]LVNPLCL[1Nal]P[dD]W[hArg]C-NH2 / II: Ac-C[tBuAla]PE[dK]PYCFADPY[Nle]CA-NH2 / III: Ac-C[tBuAla]PE[dK]PYCFADPY[Nle]CA-NH2 (linker I:4-I:11-I:18, II:1-II:8-II:15, III:1-III:8-III:15 via TATA; linker I:N-II:5-III:5 via X1) [BCY13271] | – | 0.09 | 44.20 | –
I: A[hArg]DC[Hyp]LVNPLCLEP[dA]WTC-NH2 / II: Ac-C[tBuAla]PE[dK]PYCFADPY[Nle]CA-NH2 / III: Ac-C[tBuAla]PE[dK]PYCFADPY[Nle]CA-NH2 (linker I:4-I:11-I:18, II:1-II:8-II:15, III:1-III:8-III:15 via TATA; linker I:N-II:5-III:5 via X1) [BCY13046] | 57.6 | 0.17 | – | –
I: [dA][hArg]DC[Hyp][Cba]VNPLCLEP[dA]WTC[dA]-NH2 / II: Ac-C[tBuAla]PE[dK]PYCFADPY[Nle]CA-NH2 / III: Ac-C[tBuAla]PE[dK]PYCFADPY[Nle]CA-NH2 (linker I:4-I:11-I:18, II:1-II:8-II:15, III:1-III:8-III:15 via TATA; linker I:N-II:5-III:5 via X1) [BCY13277] | 51.1 | 0.08 | – | –
BCY13279: EphA2:CD137 1:2; BCY13125 (C-term dLys) + 2x BCY8928; linker N-(acid-PEG3)-N-bis(PEG3-azide) (peptide 1 Ac-C[Hyp]LVNPLCLHP[dD]W[hArg]CL[dH]G[dK]; peptide 2 Ac-C[tBuAla]PE[dK](Pent4ynoyl)PYCFADPY[Nle]CA; linker I:1-I:8-I:15 via TATA; linker II:1-II:8-II:15 via TATA (inferred); not fully specified (bridges); also: linker N-(acid-PEG3)-N-bis(PEG3-azide) on C-terminal dK of chain 1, joins two chain 2 copies (2x BCY8928) via PYA triazoles) | – | – | – | Fold Improvement over BCY9173, EC50 (nM) ([1]; co-culture with PC3): 4.74 fold; Fold Improvement over Emax ([1]; co-culture with PC3, versus BCY9173): 2.08 fold
I: C[Hyp][Cba]VNPLCL[Dip]P[dD]WTC[dA]-NH2 / II: [Mpa][tBuAla]PE[dK]PYCFADPY[Nle]C-NH2 / III: [tBuAla]PE[dK]PYCFADPY[Nle]C-NH2 (linker I:1-I:8-I:15, II:1-II:8-II:15 via TATA; linker I:N-II:5-III:4 via X1; linker III:N-III:7-III:14 via X2) [BCY13341] | – | 0.19 | 49.15 | –
I: C[Hyp]LVNPLCL[Dip]P[dD]WTC-NH2 / II: [Mpa][tBuAla]PE[dK]PYCFADPY[Nle]C-NH2 / III: [tBuAla]PE[dK]PYCFADPY[Nle]C-NH2 (linker I:1-I:8-I:15, II:1-II:8-II:15 via TATA; linker I:N-II:5-III:4 via X1; linker III:N-III:7-III:14 via X2) [BCY13343] | – | 0.11 | 44.00 | –
I: A[hArg]DC[Hyp]LVNPLCLHP[dD]W[hArg]C-NH2 / II: Ac-C[tBuAla]PE[dK]PYCFADPY[Nle]C-NH2 / III: Ac-C[tBuAla]PE[dK]PYCFADPY[Nle]C-NH2 (linker I:4-I:11-I:18, II:1-II:8-II:15, III:1-III:8-III:15 via TATA; linker I:N-II:5-III:5 via X1) [BCY12724] | – | – | – | half-life ([2]; iv, read-out: T1/2 (converted)): 1.5 h; clearance ([2]; read-out: Clp): 13 mL/min/kg; Vd ([2]; read-out: Vdss): 1.2 L/kg
I: Ac-A[hArg]DC[Hyp]LVNPLCLKP[dD]W[hArg]C-NH2 / II: Ac-C[tBuAla]PE[dK]PYCFADPY[Nle]CA-NH2 / III: Ac-C[tBuAla]PE[dK]PYCFADPY[Nle]CA-NH2 (linker I:4-I:11-I:18, II:1-II:8-II:15, III:1-III:8-III:15 via TATA; linker I:13-II:5-III:5 via X1) [BCY12974] | 59.6 | 0.18 | – | –
I: Ac-C[Hyp]LVNPLCL[Dip]P[dD]WTC[dK]-NH2 / II: Ac-C[tBuAla]PE[dK]PYCFADPY[Nle]CA-NH2 / III: Ac-C[tBuAla]PE[dK]PYCFADPY[Nle]CA-NH2 (linker I:1-I:8-I:15, II:1-II:8-II:15, III:1-III:8-III:15 via TATA; linker I:16-II:5-III:5 via X1; C-terminus assumed) [BCY13274] | – | 0.19 | 47.43 | –
I: A[hArg]DC[Hyp][Cba]VNPLCLEP[dD]WTC-NH2 / II: Ac-C[tBuAla]PE[dK]PYCFADPY[Nle]CA-NH2 / III: Ac-C[tBuAla]PE[dK]PYCFADPY[Nle]CA-NH2 (linker I:4-I:11-I:18, II:1-II:8-II:15, III:1-III:8-III:15 via TATA; linker I:N-II:5-III:5 via X1) [BCY13051] | – | 0.21 | 37.05 | –
I: A[hArg]DC[Hyp]LVNPLCLEP[dD]WTC[dA]-NH2 / II: Ac-C[tBuAla]PE[dK]PYCFADPY[Nle]CA-NH2 / III: Ac-C[tBuAla]PE[dK]PYCFADPY[Nle]CA-NH2 (linker I:4-I:11-I:18, II:1-II:8-II:15, III:1-III:8-III:15 via TATA; linker I:N-II:5-III:5 via X1) [BCY13045] | – | 0.23 | 49.87 | –
I: Ac-A[hArg]DC[Hyp]LVNPLCKHP[dD]W[hArg]C-NH2 / II: Ac-C[tBuAla]PE[dK]PYCFADPY[Nle]CA-NH2 / III: Ac-C[tBuAla]PE[dK]PYCFADPY[Nle]CA-NH2 (linker I:4-I:11-I:18, II:1-II:8-II:15, III:1-III:8-III:15 via TATA; linker I:12-II:5-III:5 via X1) [BCY12976] | 73.2 | 0.18 | – | –
